In patent US6737383B1, “Herbicidal oxadiazolidines” (priority 1999, dated 2004):

Tests used:
giant foxtail = test: Test B pre/postemergence giant foxtail; type: in vivo, Setaria faberii
Procedure, shortened: (§1)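 Herbicidal effect was estimated by eye on a ten-point control scale after plants spent twelve to sixteen days in a greenhouse following soil or foliar treatment. Foliar sprays targeted plants at one to four leaves; all doses were formulated in a non-phytotoxic solvent with surfactant.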

morningglory = test: Test B pre/postemergence morningglory; type: in vivo, Ipomoea hederacea
Procedure, shortened: as §1

corn = test: Test B pre/postemergence corn; type: in vivo, Zea mays
Procedure, shortened: as §1

rape = test: Test B pre/postemergence rape; type: in vivo, Brassica napus
Procedure, shortened: as §1

rice = test: Test B flood test rice; type: in vivo, Oryza sativa
Procedure, shortened: (§2)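 Read-out is a visual response score from 0 (no effect) to 10 (complete control), assigned by comparison with untreated controls. Treatment was applied at the 2-leaf stage, and plants stayed in the greenhouse for twelve to sixteen days before scoring.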

purple nutsedge = test: Test B pre/postemergence purple nutsedge; type: in vivo, Cyperus rotundus
Procedure, shortened: as §1

bedstraw = test: Test B pre/postemergence bedstraw; type: in vivo, Galium aparine; conditions: Postemergence
Procedure, shortened: as §1

wheat = test: Test B pre/postemergence wheat; type: in vivo, Triticum aestivum
Procedure, shortened: as §1

soybean = test: Test B pre/postemergence soybean; type: in vivo, Glycine max
Procedure, shortened: as §1

wild oat = test: Test B pre/postemergence wild oat; type: in vivo, Avena fatua
Procedure, shortened: as §1

pigweed = test: Test B pre/postemergence pigweed; type: in vivo, Amaranthus retroflexus
Procedure, shortened: as §1

crabgrass = test: Test B pre/postemergence crabgrass; type: in vivo, Digitaria sanguinalis
Procedure, shortened: as §1

cocklebur = test: Test B pre/postemergence cocklebur; type: in vivo, Xanthium strumarium
Procedure, shortened: as §1

velvetleaf = test: Test B pre/postemergence velvetleaf; type: in vivo, Abutilon theophrasti
Procedure, shortened: as §1

smallflower flatsedge = test: Test B flood test smallflower flatsedge; type: in vivo, Cyperus difformis
Procedure, shortened: as §2

duck salad = test: Test B flood test duck salad; type: in vivo, Heteranthera limosa
Procedure, shortened: as §2

[1] = Postemergence, Rate 125 g/ha, scale 0 to 10, 0 is no effect, 10 is complete control
[2] = Preemergence, Rate 62 g/ha, scale of 0 to 10 where 0 is no effect and 10 is complete control
[3] = Preemergence, Rate 250 g/ha, scale of 0 to 10 where 0 is no effect and 10 is complete control
[4] = Preemergence, Rate 500 g/ha, scale of 0 to 10 where 0 is no effect and 10 is complete control
[5] = Rate 62 g/ha, Postemergence, scale 0 to 10 (0 no effect, 10 complete control)
[6] = Rate 250 g/ha, Postemergence, scale of 0 to 10 where 0 is no effect and 10 is complete control
[7] = Rate 500 g/ha, Postemergence, scale 0 to 10, 0 no effect, 10 complete control
[8] = Rate 62 g/ha, headed Pre-emergence (flood test species), scale 0 to 10 (0 no effect, 10 complete control)
[9] = Rate 125 g/ha, Pre-emergence, flood test species, scale 0 to 10 where 0 is no effect and 10 is complete control
[10] = Rate 250 g/ha, Pre-emergence, flood-test species, scale 0 to 10, 0 is no effect, 10 is complete control
[11] = Rate 500 g/ha, Pre-emergence, flood test species, scale 0 to 10 (0 no effect, 10 complete control)

In the case of CC(C)N(C(=O)n1oc(=O)n(C2CC3CCC2C3)c1=O)c1ccc(F)cc1 (stereo not drawn) [Compound 327], the “Plant response rating, Giant foxtail” value (giant foxtail; [1]) is reported as 0, the “Giant foxtail plant response rating” value (giant foxtail; [2]) is reported as 7 and the “Giant foxtail plant response rating (0 to 10 scale)” value (giant foxtail; Preemergence, Rate 125 g/ha) is reported as 8. For the same compound, the “Giant foxtail plant response rating” value (giant foxtail; [3]) was 9, the “Giant foxtail plant response rating” value (giant foxtail; [4]) was 9 and the “Giant foxtail plant response rating” value (giant foxtail; [5]) was 0. The “Plant response rating, Giant foxtail” value (giant foxtail; [6]) was 0, the “Plant response rating, Giant foxtail” value (giant foxtail; [7]) was 0 and the “Plant response rating, Morningglory” value (morningglory; [1]) was 8. The “Morningglory plant response rating” value (morningglory; [2]) was 0, the “Morningglory plant response rating (0 to 10 scale)” value (morningglory; Preemergence, Rate 125 g/ha) was 0 and the “Morningglory plant response rating” value (morningglory; [3]) was 0. The “Morningglory plant response rating” value (morningglory; [4]) was 0, the “Morningglory plant response rating” value (morningglory; [5]) was 7 and the “Plant response rating, Morningglory” value (morningglory; [6]) was 8. For the same compound, the “Plant response rating, Morningglory” value (morningglory; [7]) was 10, the “Plant response rating, Corn” value (corn; [1]) was 0 and the “Corn plant response rating” value (corn; [2]) was 0. For the same compound, the “Corn plant response rating (0 to 10 scale)” value (corn; Preemergence, Rate 125 g/ha) was 0, the “Corn plant response rating” value (corn; [3]) was 0 and the “Corn plant response rating” value (corn; [4]) was 0. For the same compound, the “Corn plant response rating” value (corn; [5]) was 0, the “Plant response rating, Corn” value (corn; [6]) was 0 and the “Plant response rating, Corn” value (corn; [7]) was 0. The “Plant response rating, Rape” value (rape; [1]) was 0, the “Rape plant response rating” value (rape; [2]) was 0 and the “Rape plant response rating (0 to 10 scale)” value (rape; Preemergence, Rate 125 g/ha) was 0. The “Rape plant response rating” value (rape; [3]) was 0, the “Rape plant response rating” value (rape; [4]) was 2 and the “Rape plant response rating” value (rape; [5]) was 0. For the same compound, the “Plant response rating, Rape” value (rape; [6]) was 2, the “Plant response rating, Rape” value (rape; [7]) was 2 and the “Rice plant response rating” value (rice; [8]) was 0. For the same compound, the “Rice plant response rating” value (rice; [9]) was 0, the “Rice plant response rating” value (rice; [10]) was 0 and the “Rice plant response rating” value (rice; [11]) was 0. For the same compound, the “Plant response rating, Nutsedge” value (purple nutsedge; [1]) was 0, the “Nutsedge plant response rating (0 to 10 scale)” value (purple nutsedge; Preemergence, Rate 125 g/ha) was 0 and the “Nutsedge plant response rating” value (purple nutsedge; [3]) was 0. The “Nutsedge plant response rating” value (purple nutsedge; [4]) was 0, the “Nutsedge plant response rating” value (purple nutsedge; [5]) was 0 and the “Plant response rating, Nutsedge” value (purple nutsedge; [6]) was 0. The “Plant response rating, Nutsedge” value (purple nutsedge; [7]) was 0, the “Plant response rating, Bedstraw” value (bedstraw; Rate 125 g/ha, scale 0 to 10, 0 is no effect, 10 is complete control) was 7 and the “Bedstraw plant response rating” value (bedstraw; Rate 62 g/ha, scale 0 to 10 (0 no effect, 10 complete control)) was 7. For the same compound, the “Plant response rating, Bedstraw” value (bedstraw; Rate 250 g/ha, scale of 0 to 10 where 0 is no effect and 10 is complete control) was 7, the “Plant response rating, Wheat” value (wheat; [1]) was 0 and the “Wheat plant response rating” value (wheat; [2]) was 0. The “Wheat plant response rating” value (wheat; [4]) was 4, the “Wheat plant response rating” value (wheat; [5]) was 0 and the “Plant response rating, Wheat” value (wheat; [6]) was 0. For the same compound, the “Plant response rating, Wheat” value (wheat; [7]) was 1, the “Plant response rating, Soybean” value (soybean; [1]) was 6 and the “Soybean plant response rating” value (soybean; [2]) was 0. For the same compound, the “Soybean plant response rating (0 to 10 scale)” value (soybean; Preemergence, Rate 125 g/ha) was 0, the “Soybean plant response rating” value (soybean; [3]) was 0 and the “Soybean plant response rating” value (soybean; [4]) was 0. For the same compound, the “Soybean plant response rating” value (soybean; [5]) was 5, the “Plant response rating, Soybean” value (soybean; [6]) was 6 and the “Plant response rating, Soybean” value (soybean; [7]) was 7. For the same compound, the “Plant response rating, Wild oats” value (wild oat; [1]) was 0, the “Wild oats plant response rating” value (wild oat; [2]) was 0 and the “Wild oats plant response rating (0 to 10 scale)” value (wild oat; Preemergence, Rate 125 g/ha) was 0. The “Wild oats plant response rating” value (wild oat; [3]) was 0, the “Wild oats plant response rating” value (wild oat; [4]) was 4 and the “Wild oats plant response rating” value (wild oat; [5]) was 0. The “Plant response rating, Wild oats” value (wild oat; [6]) was 0, the “Plant response rating, Wild oats” value (wild oat; [7]) was 0 and the “Plant response rating, Redroot pigweed” value (pigweed; [1]) was 5. For the same compound, the “Redroot pigweed plant response rating” value (pigweed; [2]) was 0, the “Redroot pigweed plant response rating (0 to 10 scale)” value (pigweed; Preemergence, Rate 125 g/ha) was 0 and the “Redroot pigweed plant response rating” value (pigweed; [3]) was 1. The “Redroot pigweed plant response rating” value (pigweed; [4]) was 3, the “Redroot pigweed plant response rating” value (pigweed; [5]) was 4 and the “Plant response rating, Redroot pigweed” value (pigweed; [6]) was 6. The “Plant response rating, Redroot pigweed” value (pigweed; [7]) was 7, the “Plant response rating, Crabgrass” value (crabgrass; [1]) was 0 and the “Crabgrass plant response rating” value (crabgrass; [2]) was 0. The “Crabgrass plant response rating (0 to 10 scale)” value (crabgrass; Preemergence, Rate 125 g/ha) was 2, the “Crabgrass plant response rating” value (crabgrass; [3]) was 3 and the “Crabgrass plant response rating” value (crabgrass; [4]) was 5. For the same compound, the “Crabgrass plant response rating” value (crabgrass; [5]) was 0, the “Plant response rating, Crabgrass” value (crabgrass; [6]) was 0 and the “Plant response rating, Crabgrass” value (crabgrass; [7]) was 1. For the same compound, the “Plant response rating, Cocklebur” value (cocklebur; [1]) was 0, the “Cocklebur plant response rating” value (cocklebur; [2]) was 0 and the “Cocklebur plant response rating (0 to 10 scale)” value (cocklebur; Preemergence, Rate 125 g/ha) was 0. The “Cocklebur plant response rating” value (cocklebur; [3]) was 0, the “Cocklebur plant response rating” value (cocklebur; [4]) was 0 and the “Cocklebur plant response rating” value (cocklebur; [5]) was 0. The “Plant response rating, Cocklebur” value (cocklebur; [6]) was 0, the “Plant response rating, Cocklebur” value (cocklebur; [7]) was 0 and the “Plant response rating, Velvetleaf” value (velvetleaf; [1]) was 0. For the same compound, the “Velvetleaf plant response rating” value (velvetleaf; [2]) was 0, the “Velvetleaf plant response rating (0 to 10 scale)” value (velvetleaf; Preemergence, Rate 125 g/ha) was 0 and the “Velvetleaf plant response rating” value (velvetleaf; [3]) was 0. The “Velvetleaf plant response rating” value (velvetleaf; [4]) was 0, the “Velvetleaf plant response rating” value (velvetleaf; [5]) was 0 and the “Plant response rating, Velvetleaf” value (velvetleaf; [6]) was 0. The “Plant response rating, Velvetleaf” value (velvetleaf; [7]) was 0, the “S. Flatsedge plant response rating” value (smallflower flatsedge; [8]) was 0 and the “S. Flatsedge plant response rating” value (smallflower flatsedge; [9]) was 0. The “S. Flatsedge plant response rating” value (smallflower flatsedge; [10]) was 0, the “S. Flatsedge plant response rating” value (smallflower flatsedge; [11]) was 0 and the “Ducksalad plant response rating” value (duck salad; [8]) was 0. The “Ducksalad plant response rating” value (duck salad; [9]) was 0, the “Ducksalad plant response rating” value (duck salad; [10]) was 0 and the “Ducksalad plant response rating” value (duck salad; [11]) was 0.
